Several values for one entry are separate records, joined by “and”; a condition that tells them apart may be missing. Equal values may be shown once. Read-outs that look alike come from different tables or passages of the source.
Columns and labels:
[1] = Plasma bilirubin in mice after oral treatment; format: in vivo; conditions: AG-270 200 mg/kg, 2 h after final dose
HCT116 WT cells = assay: Proliferation assay (CellTiter-Glo); format: cell-based; conditions: Homo sapiens, HCT-116, 144 h; 6-day treatment; read-out: IC50, anti-proliferation HCT116 WT
Description: (§1) HCT116 colon carcinoma parental (WT) cells with MTAP ^−/− isogenic clone were established by KYinno Biotechnology Co., Ltd. (Beijing, China). A549, MIA PaCa‐2, and WI‐38 cell lines were obtained from ATCC. NCI‐H838 was obtained from Cobioer Biosciences. HCT116 WT and KO MTAP cells were cultured in McCoy's 5A media containing 10% FBS. A549 cells were cultured in DMEM media containing 10% FBS. MIA PaCa‐2 cells were cultured in DMEM media containing 10% FBS and 2.5% horse serum. NCI‐H838 cells were cultured in PRMI 1640 media containing 10% FBS. WI‐38 cells were cultured in EMEM media containing 10% FBS.
(§2) Cells were plated in 96‐well cell culture plates and allowed to attach overnight at 37°C in 5% CO2. Compounds diluted in DMSO were added to cells in a dose–response format for 6 days. The final concentration of DMSO was 0.1% in media. Cell proliferation was measured using CellTiter‐Glo Cell Viability Assay (Promega). The IC50 values were calculated using the GraphPad Prism 9. Drug combination effects were analyzed using Combenefit software.[45]

A549 = assay: Proliferation assay (CellTiter-Glo); format: cell-based; conditions: Homo sapiens, A549, 144 h; MTAP-deleted, 6-day; read-out: IC50, anti-proliferation A549
Description: as §1, §2

[2] = tested on: WI-38 (human fetal lung fibroblast cells); assay: Proliferation assay (CellTiter-Glo); format: cell-based; conditions: Homo sapiens, WI-38, MTAP WT; read-out: IC50, anti-proliferation WI-38
Description: as §1, §2

HCT116 MTAP−/− cells [3] = assay: Proliferation assay (CellTiter-Glo); format: cell-based; conditions: Homo sapiens, HCT-116, 144 h; 6-day treatment; read-out: IC50, anti-proliferation HCT116 MTAP−/−
Description: as §1, §2

NCI-H838 = assay: Proliferation assay (CellTiter-Glo); format: cell-based; conditions: Homo sapiens, NCI-H838, 144 h; MTAP-deleted, 6-day; read-out: IC50, anti-proliferation NCI-H838
Description: as §1, §2

MIA PaCa-2 = assay: Proliferation assay (CellTiter-Glo); format: cell-based; conditions: Homo sapiens, MIA PaCa-2, 144 h; MTAP-deleted, 6-day; read-out: IC50, anti-proliferation MIA PaCa-2
Description: as §1, §2

UGT1A1 = tested on: UGT1A1; design: method as in PMID 16765731; conditions: off-target activity of AG-270; cited from earlier work
[4] = Plasma pharmacokinetics after multiple administration in xenograft mice; format: in vivo; conditions: AG-270 200 mg/kg
[5] = tested on: HCT116 MTAP−/− subcutaneous xenograft; assay: Xenograft efficacy study, monotherapy; format: in vivo, mice; conditions: AG-270 200 mg/kg oral
Description: An efficacy study in an HCT116 MTAP ^−/− subcutaneous xenograft mouse model was performed to evaluate the antitumor effect of SCR‐7952, with once daily (q.d.) oral dosing of 0.25, 0.5, 1.0, or 3.0 mg/kg, respectively.
Nu/Nu female mice (6–12 weeks old; Beijing Vital River Laboratory Animal Technology Co., Ltd.) were used for in vivo xenograft studies. All experimental procedures involving animals and their care were in accordance with the State Council Regulations for Laboratory Animal Management (Enacted in 1988) and approved by the Institutional Animal Care and Use Committee of Jiangsu Simcere Pharmaceutical Co., Ltd. (IACUC; Approval No. AP‐056).
(§3) Subcutaneous injections of HCT116 MTAP ^−/− cells were performed (5 × 10^6 cells in 100 µL) into Nu/Nu female mice. Mice were observed daily for the development of tumors. Six days after tumor implantation, mice were randomly distributed into different groups. SCR‐7952, AG‐270, JNJ‐64619178, or vehicle (water with 5% N‐methylpyrrolidone and 10% solutol HS‐15) were daily administrated by oral gavage. Tumor volumes and body weights were recorded three times per week. Tumor volumes were measured in two dimensions using a caliper, and the volume was expressed in mm^3 using the formula: V = (L × W × W)/2, where V is tumor volume, L is tumor length (the longest tumor dimension), and W is tumor width (perpendicular to L). The tumor growth inhibition rate (TGI%) of each dosing group was calculated according to the following formula: %TGI = (1 − (V t(treatment group) − V 0(treatment group))/(V t(vehicle group) − V 0(vehicle group))) × 100%, where V t is average tumor volume of a dosing group on a specific day, V 0 is average tumor volume of a dosing group on the initial day. At the end of the study, plasma and tumor tissues were collected and stored at −80°C for further measurement.

HCT116 MTAP−/− cells [6] = assay: Intracellular SAM inhibition assay; format: cell-based; conditions: Homo sapiens, HCT-116, 6 h, read-out: IC50, cellular SAM levels
Description: MAT2A inhibition in the cellular environment was monitored by measurement of the abundance of its product SAM in HCT116 MTAP ^−/− cells. HCT116 MTAP ^−/− cells were plated in 96‐well cell culture plates at 50,000 cells per well and allowed to attach overnight at 37°C in 5% CO2. Compounds were added in a dose–response format to generate a 10‐point dose–response curve. Doses were started at a 10 µM top concentration with 1:5 serial dilution. After 6 h of incubation, the medium was removed and cells were extracted with 50% methanol containing 1 M acetic acid for SAM metabolite measurement by UPLC‐MS/MS.
The standard SAM solution was prepared in a surrogate matrix of 50% methanol containing 1 M acetic acid with a concentration range of 3–1000 ng/mL. The quality control sample was prepared in the same surrogate matrix. SAM‐d 3 was used as the internal standard (IS). A Waters UPLC system coupled with a SCIEX Triple Quad™ 6500^+ mass spectrometer […] was used to analyze the samples. Samples were separated on an ACQUITY UPLC® BEH amide column (2.1 × 50 mm, 1.7 µm). The mobile phase consisted of 5% acetonitrile containing 5 mM NH4OAc and 1% (v/v) formic acid (A) and 95% acetonitrile containing 5 mM NH4OAc and 1% (v/v) formic acid (B). […] SAM and SAM‐d 3 were detected with multiple‐reaction monitoring of a mass transition pair at m/z 399.2/250.2 and […], respectively.

[7] = tested on: MTAP-deleted squamous NSCLC; design: method as in NCT04794699; conditions: 3/4 patients, up to 50% circulating tumor DNA decrease; ref NCT04794699; cited from earlier work
MTAP−/− cancer cells = tested on: MTAP−/− cancer cells; design: method as in earlier work; conditions: read-out: IC50, antiproliferation on MTAP−/− cancer cells; cited from earlier work
MAT2A [8] = biological target: T1, MAT2A (Homo sapiens, UniProt P31153); design: method as in earlier work; conditions: read-out: IC50, inhibition of MAT2A activity; cited from earlier work
T1 construct: purchased Pharmaron 210405‐HWR‐20210429

HCT116 MTAP−/− xenograft = assay: Xenograft combination treatment study; format: in vivo, mice; conditions: JNJ-64619178 1.0 mg/kg alone
Description: as §3

SDMA [9] = assay: Immunoblot of SDMA (PRMT5-dependent mark); format: cell-based; conditions: 96 h, HCT116 MTAP−/− cells
SDMA [10] = assay: Tumor SDMA levels in combination xenograft study; format: in vivo, mice; conditions: JNJ-64619178 1.0 mg/kg alone
FANCA = assay: RT-PCR of FANCA and DI-containing transcripts; format: cell-based; conditions: 72 h
Huh-7 cells = tested on: Huh-7 cells; design: method as in PMID 28553945; conditions: read-out: IC50, antiproliferative effect on Huh-7 cells; cited from earlier work
MAT2A [11] = biological target: T1, MAT2A; design: method as in PMID 28553945; conditions: chemical assay; cited from earlier work
[12] = tested on: mixed-lineage leukemia-rearranged (MLLr) leukemia; design: method as in PMID 32456310; conditions: read-out: IC50, antiproliferation in MLLr leukemia; cited from earlier work

T1 sequence (P31153 whole entry): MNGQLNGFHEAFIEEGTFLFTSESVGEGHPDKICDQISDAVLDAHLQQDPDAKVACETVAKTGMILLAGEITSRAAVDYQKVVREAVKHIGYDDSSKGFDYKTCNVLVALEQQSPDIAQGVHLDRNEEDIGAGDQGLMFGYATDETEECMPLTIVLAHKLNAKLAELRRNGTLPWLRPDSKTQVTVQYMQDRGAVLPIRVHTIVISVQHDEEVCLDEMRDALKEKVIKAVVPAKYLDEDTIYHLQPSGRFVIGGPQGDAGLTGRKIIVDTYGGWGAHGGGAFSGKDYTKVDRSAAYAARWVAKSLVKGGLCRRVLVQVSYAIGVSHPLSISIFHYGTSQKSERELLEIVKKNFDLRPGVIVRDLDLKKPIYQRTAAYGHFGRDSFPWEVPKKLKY

Question: For `COc1ccc(-c2c(Nc3ccccn3)[nH]c3c(C4=CCCCC4)c(-c4ccccc4)nn3c2=O)cc1` [AG‐270, reference compound], which “effect on plasma total, direct and unconjugated bilirubin” value [1] is on record?
Answer: remarkably increased

Question: And the IC50 (HCT116 WT cells)?
Answer: 1220 nM

Question: What about the IC50 (A549) of the same molecule?
Answer: 646 nM

Question: And the IC50 [2]?
Answer: 1410 nM

Question: And the IC50 (HCT116 MTAP−/− cells [3])?
Answer: 300 nM

Question: What about the IC50 (NCI-H838) of the same molecule?
Answer: 93.9 nM

Question: And the IC50 (MIA PaCa-2)?
Answer: 935 nM

Question: What about the IC50 (UGT1A1) of the same molecule?
Answer: 1100 nM

Question: And the AUC0-24h free drug ([4]; calculated)?
Answer: 3829 ng·h/mL

Question: What about the AUC(0-t) ([4]; Nu/Nu, mouse, oral, plasma, HCT116 MTAP−/− xenograft mice, read-out: AUC0-24h total) of the same molecule?
Answer: 383 µg·h/mL

Question: And the TGI [5]?
Answer: 52.0%

Question: And the IC50 (HCT116 MTAP−/− cells [6])?
Answer: 5.8 nM

Question: Which molecular responses [7] does the source give for `Nc1nc(=O)n(-c2ccccc2Cl)c2nc(C(F)(F)F)ccc12` [IDE397] here?
Answer: 75%

Question: And the IC50 (MTAP−/− cancer cells)?
Answer: ~20 nM

Question: And the IC50 (MAT2A [8])?
Answer: ~10 nM

Question: With `Nc1nc2cc(CC[C@H]3C[C@@H](n4ccc5c(N)ncnc54)[C@H](O)[C@@H]3O)ccc2cc1Br` [JNJ‐64619178, reference compound] as the molecule, how does the TGI (HCT116 MTAP−/− xenograft) read?
Answer: 54.0%

Question: And the “SDMA level (immunoblot)” value (SDMA [9])?
Answer: reduction of SDMA

Question: And the “tumor SDMA levels” value (SDMA [10])?
Answer: remarkable reduction

Question: And the “expression of FANCA DI-containing transcripts” value (FANCA)?
Answer: increase of FANCA DI‐containing transcripts

Question: For `CN(C)CCc1nnc2cc(-c3ccccc3)c3cc(Cl)ccc3n12` [PF‐9366], which IC50 (Huh-7 cells) is on record?
Answer: ~10 µM and 10 µM

Question: And the IC50 (MAT2A [11])?
Answer: 420 nM

Question: And the IC50 [12]?
Answer: ~10 µM

Source: article PMC11413503, “SCR‐7952, a highly selective MAT2A inhibitor, demonstrates synergistic antitumor activities in combination with the S‐adenosylmethionine‐competitive or the methylthioadenosine‐cooperative protein arginine methyltransferase 5 inhibitors in methylthioadenosine phosphorylase‐deleted tumors” (MedComm, 2024)
